From ChEMBL document CHEMBL1127385, “Synthesis and diuretic activity of alkyl- and arylguanidine analogs of N,N'-dicyclohexyl-4-morpholinecarboxamidine in rats and dogs” (J Med Chem, 1994)

Experiments:
[1] = tested on: Rattus norvegicus; assay: Ratio of Total electrolytic excretion of sodium and potassium in urine of rats after intravenous administration of 23.5 uM/Kg of drug; format: ADME, organism-based; conditions: in vivo
[2] = tested on: Rattus norvegicus; assay: Tested for the diuretic activity by measuring the urinary volume after peroral administering 32.4 uM/Kg of drug in rats; format: ADME, organism-based, Urine; conditions: in vivo, po
[3] = tested on: Rattus norvegicus; assay: Total electrolytic excretion of potassium in urine of rats after peroral administration of 97.1 uM/Kg of drug; format: ADME, organism-based; conditions: in vivo, po
[4] = tested on: Rattus norvegicus; assay: Ratio of Total electrolytic excretion of sodium and potassium in urine of rats after intravenous administration of 70.6 uM/Kg of drug; format: ADME, organism-based; conditions: in vivo
[5] = tested on: Rattus norvegicus; assay: Total electrolytic excretion of chlorine in urine of rats after peroral administration of 97.1 uM/Kg of drug; format: ADME, organism-based; conditions: in vivo, po
[6] = tested on: Rattus norvegicus; assay: Total electrolytic excretion of chlorine in urine of rats after peroral administration of 32.4 uM/Kg of drug; format: ADME, organism-based; conditions: in vivo, po
[7] = tested on: Rattus norvegicus; assay: Total electrolytic excretion of sodium in urine of rats after peroral administration of 324 uM/Kg of drug; format: ADME, organism-based; conditions: in vivo, po
[8] = tested on: Rattus norvegicus; assay: Total electrolytic excretion of potassium in urine of rats after peroral administration of 32.4 uM/Kg of drug; format: ADME, organism-based; conditions: in vivo, po
[9] = tested on: Rattus norvegicus; assay: Total electrolytic excretion of chlorine in urine of rats after peroral administration of 324 uM/Kg of drug; format: ADME, organism-based; conditions: in vivo, po
[10] = tested on: Rattus norvegicus; assay: Ratio of Total electrolytic excretion of sodium and potassium in urine of rats after peroral administration of 324 uM/Kg of drug; format: ADME, organism-based; conditions: in vivo, po
[11] = tested on: Rattus norvegicus; assay: Total electrolytic excretion of sodium in urine of rats after peroral administration of 97.1 uM/Kg of drug; format: ADME, organism-based; conditions: in vivo, po
[12] = tested on: Rattus norvegicus; assay: Ratio of Total electrolytic excretion of sodium and potassium in urine of rats after peroral administration of 97.1 uM/Kg of drug; format: ADME, organism-based; conditions: in vivo, po
[13] = tested on: Rattus norvegicus; assay: Total electrolytic excretion of potassium in urine of rats after peroral administration of 324 uM/Kg of drug; format: ADME, organism-based; conditions: in vivo, po
[14] = tested on: Rattus norvegicus; assay: Total electrolytic excretion of sodium in urine of rats after peroral administration of 32.4 uM/Kg of drug; format: ADME, organism-based; conditions: in vivo, po
[15] = tested on: Rattus norvegicus; assay: Ratio of Total electrolytic excretion of sodium and potassium in urine of rats after peroral administration of 32.4 uM/Kg of drug; format: ADME, organism-based; conditions: in vivo, po
[16] = tested on: Rattus norvegicus; assay: Tested for the diuretic activity by measuring the urinary volume after peroral administering 97.1 uM/Kg of drug in rats; format: ADME, organism-based, Urine; conditions: in vivo, po
[17] = tested on: Rattus norvegicus; assay: Tested for the diuretic activity by measuring the urinary volume after peroral administering 324 uM/Kg of drug in rats; format: ADME, organism-based, Urine; conditions: in vivo, po
[18] = tested on: Canis familiaris; assay: Ratio of mean of 5 hr urinary excretion of Na+ and K+ from dogs at 7.85 umol/kg (iv); format: ADME, organism-based, Canis lupus familiaris, Urine; conditions: dog, in vivo
[19] = tested on: Rattus norvegicus; assay: Ratio of Total electrolytic excretion of sodium and potassium in urine of rats after intravenous administration of 52.4 uM/Kg of drug; format: ADME, organism-based; conditions: in vivo
[20] = tested on: Rattus norvegicus; assay: Tested for the diuretic activity by measuring the urinary volume after peroral administering 28.9 uM/Kg of drug in rats; format: ADME, organism-based, Urine; conditions: in vivo, po
[21] = tested on: Rattus norvegicus; assay: Tested for the diuretic activity by measuring the urinary volume after peroral administering 86.7 uM/Kg of drug in rats; format: ADME, organism-based, Urine; conditions: in vivo, po
[22] = tested on: Canis familiaris; assay: Total electrolytic excretion of chlorine in urine of dogs after intravenous administration of 7.85 uM/Kg of drug; format: ADME, organism-based, Canis lupus familiaris; conditions: dog, in vivo
[23] = tested on: Rattus norvegicus; assay: Ratio of Total electrolytic excretion of sodium and potassium in urine of rats after intravenous administration of 26.2 uM/Kg of drug; format: ADME, organism-based; conditions: in vivo
[24] = tested on: Rattus norvegicus; assay: Ratio of Total electrolytic excretion of sodium and potassium in urine of rats after peroral administration of 289 uM/Kg of drug; format: ADME, organism-based; conditions: in vivo, po
[25] = tested on: Rattus norvegicus; assay: Total electrolytic excretion of potassium in urine of rats after peroral administration of 86.7 uM/Kg of drug; format: ADME, organism-based; conditions: in vivo, po
[26] = tested on: Rattus norvegicus; assay: Total electrolytic excretion of sodium in urine of rats after peroral administration of 289 uM/Kg of drug; format: ADME, organism-based; conditions: in vivo, po
[27] = tested on: Canis familiaris; assay: Total electrolytic excretion of chlorine in urine of dogs after intravenous administration of 26.2 uM/Kg of drug; format: ADME, organism-based, Canis lupus familiaris; conditions: dog, in vivo
[28] = tested on: Canis familiaris; assay: Total electrolytic excretion of sodium in urine of dogs after intravenous administration of 7.85 uM/Kg of drug; format: ADME, organism-based, Canis lupus familiaris; conditions: dog, in vivo
[29] = tested on: Canis familiaris; assay: Total electrolytic excretion of chlorine in urine of dogs after intravenous administration of 52.4 uM/Kg of drug; format: ADME, organism-based, Canis lupus familiaris; conditions: dog, in vivo
[30] = tested on: Canis familiaris; assay: Total electrolytic excretion of sodium in urine of dogs after intravenous administration of 26.2 uM/Kg of drug; format: ADME, organism-based, Canis lupus familiaris; conditions: dog, in vivo
[31] = tested on: Rattus norvegicus; assay: Total electrolytic excretion of chlorine in urine of rats after peroral administration of 28.9 uM/Kg of drug; format: ADME, organism-based; conditions: in vivo, po
[32] = tested on: Rattus norvegicus; assay: Ratio of Total electrolytic excretion of sodium and potassium in urine of rats after peroral administration of 86.7 uM/Kg of drug; format: ADME, organism-based; conditions: in vivo, po
[33] = tested on: Canis familiaris; assay: Total electrolytic excretion of potassium in urine of dogs after intravenous administration of 26.2 uM/Kg of drug; format: ADME, organism-based, Canis lupus familiaris; conditions: dog, in vivo
[34] = tested on: Canis familiaris; assay: Total electrolytic excretion of potassium in urine of dogs after intravenous administration of 7.85 uM/Kg of drug; format: ADME, organism-based, Canis lupus familiaris; conditions: dog, in vivo
[35] = tested on: Rattus norvegicus; assay: Total electrolytic excretion of chlorine in urine of rats after peroral administration of 289 uM/Kg of drug; format: ADME, organism-based; conditions: in vivo, po
[36] = tested on: Canis familiaris; assay: Total electrolytic excretion of sodium in urine of dogs after intravenous administration of 52.4 uM/Kg of drug; format: ADME, organism-based, Canis lupus familiaris; conditions: dog, in vivo
[37] = tested on: Rattus norvegicus; assay: Total electrolytic excretion of potassium in urine of rats after peroral administration of 28.9 uM/Kg of drug; format: ADME, organism-based; conditions: in vivo, po
[38] = tested on: Rattus norvegicus; assay: Tested for the diuretic activity by measuring the urinary volume after peroral administering 289 uM/Kg of drug in rats; format: ADME, organism-based, Urine; conditions: in vivo, po
[39] = tested on: Canis familiaris; assay: Tested for the diuretic activity by measuring the urinary volume after intravenous administering 26.2 uM/Kg of drug in dogs; format: ADME, organism-based, Canis lupus familiaris, Urine; conditions: dog, in vivo
[40] = tested on: Rattus norvegicus; assay: Ratio of Total electrolytic excretion of sodium and potassium in urine of rats after peroral administration of 28.9 uM/Kg of drug; format: ADME, organism-based; conditions: in vivo, po
[41] = tested on: Canis familiaris; assay: Tested for the diuretic activity by measuring the urinary volume after intravenous administering 52.4 uM/Kg of drug in dogs; format: ADME, organism-based, Canis lupus familiaris, Urine; conditions: dog, in vivo
[42] = tested on: Rattus norvegicus; assay: Total electrolytic excretion of sodium in urine of rats after peroral administration of 86.7 uM/Kg of drug; format: ADME, organism-based; conditions: in vivo, po
[43] = tested on: Rattus norvegicus; assay: Total electrolytic excretion of chlorine in urine of rats after peroral administration of 86.7 uM/Kg of drug; format: ADME, organism-based; conditions: in vivo, po
[44] = tested on: Rattus norvegicus; assay: Total electrolytic excretion of potassium in urine of rats after peroral administration of 289 uM/Kg of drug; format: ADME, organism-based; conditions: in vivo, po
[45] = tested on: Canis familiaris; assay: Total electrolytic excretion of potassium in urine of dogs after intravenous administration of 52.4 uM/Kg of drug; format: ADME, organism-based, Canis lupus familiaris; conditions: dog, in vivo
[46] = tested on: Canis familiaris; assay: Tested for the diuretic activity by measuring the urinary volume after intravenous administering 7.85 uM/Kg of drug in dogs; format: ADME, organism-based, Canis lupus familiaris, Urine; conditions: dog, in vivo
[47] = tested on: Rattus norvegicus; assay: Total electrolytic excretion of sodium in urine of rats after peroral administration of 28.9 uM/Kg of drug; format: ADME, organism-based; conditions: in vivo, po

c1ccc(C/N=C(/NCc2ccccc2)N2CCOCC2)cc1
Ratio [1]: 16.4
V [2]: 5.4 mL
Excretion K+ [3]: 0.31 m equiv
Ratio [4]: 29.5
Excretion Cl- [5]: 1.14 m equiv
Excretion Cl- [6]: 0.86 m equiv
Excretion Na+ [7]: 2.25 m equiv
Excretion K+ [8]: 0.33 m equiv
Excretion Cl- [9]: 1.94 m equiv
Ratio [10]: 5.4
Excretion Na+ [11]: 1.13 m equiv
Ratio [12]: 3.6
Excretion K+ [13]: 0.42 m equiv
Excretion Na+ [14]: 0.77 m equiv
Ratio [15]: 2.4
V [16]: 7.3 mL
V [17]: 13.8 mL

C1CCC(/N=C(\NC23CC4CC(CC(C4)C2)C3)N2CCOCC2)CC1
Ratio [18]: 8.8
Ratio [19]: 12
V [20]: 5.5 mL
V [21]: 9.9 mL
Excretion Cl- [22]: 7 m equiv
Ratio [23]: 15.3
Ratio [24]: 7.9
Excretion K+ [25]: 0.24 m equiv
Excretion Na+ [26]: 1.86 m equiv
Excretion Cl- [27]: 22.4 m equiv
Excretion Na+ [28]: 8.4 m equiv
Excretion Cl- [29]: 28.8 m equiv
Excretion Na+ [30]: 27.9 m equiv
Excretion Cl- [31]: 0.97 m equiv
Ratio [32]: 6.6
Excretion K+ [33]: 2.3 m equiv
Excretion K+ [34]: 1.4 m equiv
Excretion Cl- [35]: 1.82 m equiv
Excretion Na+ [36]: 36 m equiv
Excretion K+ [37]: 0.24 m equiv
V [38]: 11.3 mL
V [39]: 197 mL
Ratio [40]: 4.2
V [41]: 218 mL
Excretion Na+ [42]: 1.58 m equiv
Excretion Cl- [43]: 1.54 m equiv
Excretion K+ [44]: 0.24 m equiv
Excretion K+ [45]: 3.3 m equiv
V [46]: 62 mL
Excretion Na+ [47]: 1 m equiv
